The record followed here is patent US20230301890A1, “COMPOSITIONS COMPRISING UROLITHINS” (Amazentis SA, priority 2022, published 2023).

The test system of this experiment is skin barrier function. Description: Skin barrier function (TEWL) by Tewameter, aging studies. Format: in vivo, human. To be noted: UA 1% topical, 8 weeks. On the procedure: TEWAMETER® TM 300 (Courage & Khazaka, Cologne, Germany): Transepidermal water loss (TEWL) is a non-invasive method to measure the barrier function of the skin and is regarded as a sensitive parameter to quantify skin barrier damage. Briefly, the insensible water evaporation from the skin is measured by placing cylindric open chamber with two hygrosensors at defined distance to the skin. The probe is held in place for each measurement for 30 seconds. This is to assure that a stable value has been established. The first part of the measurements belongs to this equilibration phase. The values of the last 10 seconds (=10 values) are averaged as the actual measurement value.
TEWAMETER® TM 300 (Courage & Khazaka, Cologne, Germany): Transepidermal water loss (TEWL) is a non-invasive method to measure the barrier function of the skin and is regarded as a sensitive parameter to quantify skin barrier damage. Briefly, the insensible water evaporation from the skin is measured by placing cylindric open chamber with two hygrosensors at defined distance to the skin.

For the compound `O=c1oc2cc(O)ccc2c2ccc(O)cc12` [Urolithin A], the skin barrier function entry is “no significant impact”.
